What was measured:
Format in all cases: in vivo
Deroceras reticulatum [1] = assay: Forced ingestion trial of Deroceras reticulatum using various strobilurin compounds (Example 2); conditions: for slug mortality (in words): 0.5 mg a.i./slug
Experimental: (§1) Adult D. reticulatum were field-collected from an irrigated plot of mixed herbage and maintained in plastic boxes lined with moist, unbleached, absorbent paper and under controlled environmental conditions (12 hour photoperiod, 10° C., 90% RH). Slugs were fed ad. lib. on wheat grain and a mixture of fresh foliage for a period of up to, but not exceeding, one week prior to testing. Slugs were then starved for a period of 48 h before treatment.
(§2) Individual slugs were weighed and anaesthetized using CO2 for a period of 10-20 minutes. Test solutions were incorporated into a warm agar jelly (1.0% w/v) to reduce the risk of regurgitation. Twenty μl aliquots of warm agar mix was then injected into the buccal cavity of a single slug using a fine glass micro-syringe and gently eased into the slug crop. Individual slugs were then placed into labelled Petri dishes lined with moist, unbleached, absorbent paper. Following application of treatments, slugs were maintained under controlled environmental conditions (12 hr photoperiod, 10° C., 90% RH), and slug health recorded over the subsequent three days. Slug health was classified into one of four categories: • Healthy (showing no symptoms) • Affected (showing some symptoms of poisoning, excessive mucus production/deformity) • Moribund (severely affected/paralysed, unable to move in response to gentle prodding) • Dead
For each treatment, 20 slugs were injected. […] The results are shown in Table 3, presented as a percentage of the total number of slugs tested for each treatment.

Deroceras reticulatum [2] = assay: Forced ingestion trial of azoxystrobin (FS formulation) and picoxystrobin against various slug species (Example 3)
Experimental: as §1
as §2, with “Dead […]” for “Dead”

Deroceras reticulatum [3] = assay: Forced ingestion study on D. reticulatum (Example 1); conditions: for Number of slugs Affected / Number of slugs Dead / Number of slugs Healthy: of 20 slugs
Experimental: Forced ingestion studies were setup using the Field Slug, Deroceras reticulatum. A formulation containing the strobilurin azoxystrobin was injected directly into the gut of the slugs. Details of the formulation (Dynasty® 100FS) are: […]
Slugs were field-collected, and starved for 48 hours prior to forced ingestion studies. Individual slugs were weighed and anaesthetized using carbon dioxide for 10 to 20 minutes. Test solutions were incorporated into an agar jelly (1.0% w/v) to reduce the risk of regurgitation. For each slug, ten ul aliquots of warm agar mix were injected into the buccal cavity using a fine glass micro-syringe and gently eased into the slug crop. Individual slugs were then placed into labelled Petri dishes lined with moist, unbleached, absorbent paper. For each treatment, 20 slugs were injected. An untreated control of warm agar gel was injected for comparison purposes.
Treated slugs were maintained under controlled environmental conditions (12 hour photoperiod, 15° C., 90% relative humidity), and slug health assessments recorded over the three subsequent days. Slug health was classified into one of the following categories: • Healthy: showing no symptoms • Affected: showing some symptoms of poisoning, excessive mucus production/deformity • Dead

Arion distinctus [4] = assay: Forced ingestion trial of azoxystrobin (FS formulation) against various slug species (Example 3); conditions: 100FS formulation
Experimental: as §1, §2
(§3) The methods used in this trial were the same as those described in Example 2, except that the following slug species were collected and tested: Deroceras reticulatum, Anion distinctus, Anion fasciatus and Tandonia budapestensis
(§4) For each treatment, 20 slugs were injected. […] The results are shown in Table 5, presented as a percentage of the total number of slugs tested for each treatment.

Arion fasciatus [5] = assay: as above; conditions: 100FS formulation
Experimental: as §1, §2, §3, §4

Tandonia budapestensis [6] = assay: as above; conditions: 100FS formulation
Experimental: as §1, §2, §3, §4

Arion distinctus [7] = assay: Forced ingestion trial of azoxystrobin (SC formulation) against various slug species (Example 4); conditions: 250SC formulation
Experimental: as §1, §2, §3
(§5) For each treatment, at least 20 slugs were injected. […] The results are shown in Table 7, presented as a percentage of the total number of slugs tested for each treatment.

Arion fasciatus [8] = assay: as above; conditions: 250SC formulation
Experimental: as §1, §2, §3, §5

Deroceras reticulatum [9] = assay: as above; conditions: 250SC formulation
Experimental: as §1, §2, §3, §5

Tandonia budapestensis [10] = assay: as above; conditions: 250SC formulation
Experimental: as §1, §2, §3, §5

D. reticulatum = assay: Tests to establish potential effect of surfactants on molluscicidal activity, forced ingestion (Example 6)
Experimental: as §1, §2
The methods used in this trial were the same as those described in Example 2. The treatments tested are listed in Table 10, and results are in Table 11, presented as a percentage of the total number of slugs tested for each treatment. For each treatment 20 slugs were tested. For ease of comparison, the concentrations of each treatment applied were equivalent to the amount of each component that would be applied in a treatment of Amistar® at a rate of 0.1 mg a.i./slug.

[11] = 0.0001 mg azoxystrobin/slug, 24 hours
[12] = 0.0001 mg azoxystrobin/slug, 48 hours
[13] = 0.0001 mg azoxystrobin/slug, 72 hours
[14] = 0.001 mg azoxystrobin/slug, 24 hours
[15] = 0.001 mg azoxystrobin/slug, 48 hours
[16] = 0.001 mg azoxystrobin/slug, 72 hours
[17] = 0.01 mg azoxystrobin/slug, 24 hours
[18] = 0.01 mg azoxystrobin/slug, 48 hours
[19] = 0.01 mg azoxystrobin/slug, 72 hours
[20] = 0.1 mg azoxystrobin/slug, 24 hours
[21] = 0.1 mg azoxystrobin/slug, 48 hours
[22] = 0.1 mg azoxystrobin/slug, 72 hours
[23] = 1 mg azoxystrobin/slug, 24 hours
[24] = 1 mg azoxystrobin/slug, 48 hours
[25] = 1 mg azoxystrobin/slug, 72 hours
[26] = 0.1 mg a.i./slug, 72 hours after forced ingestion

SMILES: CO/N=C(/C1=NOCCO1)c1ccccc1Oc1ncnc(Oc2ccccc2Cl)c1F [fluoxastrobin]
- slug mortality (in words) (Deroceras reticulatum [1]): significant levels of slug mortality

SMILES: CO/C=C(/C(=O)OC)c1ccccc1COc1cccc(C(F)(F)F)n1 [picoxystrobin]
- mean concentration that kills 99% of the population (probit analysis) (Deroceras reticulatum [2]; Deroceras reticulatum, treatments 1 to 4 (Acanto 250SC)): 0.198 mg a.i./slug
- killing of slugs (in words) (Deroceras reticulatum [2]; doses equivalent to 0.05 mg a.i./slug or more): highly effective at killing slugs

SMILES: CON=C(C(=O)OC)c1ccccc1CON=C(C)c1cccc(C(F)(F)F)c1 [trifloxystrobin]
- slug mortality (in words) (Deroceras reticulatum [1]): significant levels of slug mortality

SMILES: CO/C=C(/C(=O)OC)c1ccccc1Oc1cc(Oc2ccccc2C#N)ncn1 [azoxystrobin]
- Number of slugs Affected (Deroceras reticulatum [3]; [11]): 0
- Number of slugs Dead (Deroceras reticulatum [3]; [11]): 0
- Number of slugs Healthy (Deroceras reticulatum [3]; [11]): 20
- Number of slugs Affected (Deroceras reticulatum [3]; [12]): 0
- Number of slugs Dead (Deroceras reticulatum [3]; [12]): 0
- Number of slugs Healthy (Deroceras reticulatum [3]; [12]): 20
- Number of slugs Affected (Deroceras reticulatum [3]; [13]): 0
- Number of slugs Dead (Deroceras reticulatum [3]; [13]): 0
- Number of slugs Healthy (Deroceras reticulatum [3]; [13]): 20
- Number of slugs Affected (Deroceras reticulatum [3]; [14]): 4
- Number of slugs Dead (Deroceras reticulatum [3]; [14]): 0
- Number of slugs Healthy (Deroceras reticulatum [3]; [14]): 16
- Number of slugs Affected (Deroceras reticulatum [3]; [15]): 2
- Number of slugs Dead (Deroceras reticulatum [3]; [15]): 4
- Number of slugs Healthy (Deroceras reticulatum [3]; [15]): 14
- Number of slugs Affected (Deroceras reticulatum [3]; [16]): 2
- Number of slugs Dead (Deroceras reticulatum [3]; [16]): 4
- Number of slugs Healthy (Deroceras reticulatum [3]; [16]): 14
- Number of slugs Affected (Deroceras reticulatum [3]; [17]): 6
- Number of slugs Dead (Deroceras reticulatum [3]; [17]): 2
- Number of slugs Healthy (Deroceras reticulatum [3]; [17]): 12
- Number of slugs Affected (Deroceras reticulatum [3]; [18]): 6
- Number of slugs Dead (Deroceras reticulatum [3]; [18]): 6
- Number of slugs Healthy (Deroceras reticulatum [3]; [18]): 8
- Number of slugs Affected (Deroceras reticulatum [3]; [19]): 6
- Number of slugs Dead (Deroceras reticulatum [3]; [19]): 6
- Number of slugs Healthy (Deroceras reticulatum [3]; [19]): 8
- Number of slugs Affected (Deroceras reticulatum [3]; [20]): 2
- Number of slugs Dead (Deroceras reticulatum [3]; [20]): 16
- Number of slugs Healthy (Deroceras reticulatum [3]; [20]): 2
- Number of slugs Affected (Deroceras reticulatum [3]; [21]): 0
- Number of slugs Dead (Deroceras reticulatum [3]; [21]): 18
- Number of slugs Healthy (Deroceras reticulatum [3]; [21]): 2
- Number of slugs Affected (Deroceras reticulatum [3]; [22]): 0
- Number of slugs Dead (Deroceras reticulatum [3]; [22]): 18
- Number of slugs Healthy (Deroceras reticulatum [3]; [22]): 2
- Number of slugs Affected (Deroceras reticulatum [3]; [23]): 0
- Number of slugs Dead (Deroceras reticulatum [3]; [23]): 20
- Number of slugs Healthy (Deroceras reticulatum [3]; [23]): 0
- Number of slugs Affected (Deroceras reticulatum [3]; [24]): 0
- Number of slugs Dead (Deroceras reticulatum [3]; [24]): 20
- Number of slugs Healthy (Deroceras reticulatum [3]; [24]): 0
- Number of slugs Affected (Deroceras reticulatum [3]; [25]): 0
- Number of slugs Dead (Deroceras reticulatum [3]; [25]): 20
- Number of slugs Healthy (Deroceras reticulatum [3]; [25]): 0
- activity against D. reticulatum slugs (in words) (Deroceras reticulatum [3]; efficacy increases with concentration and with time): active against D. reticulatum slugs
- mean concentration that kills 99% of the population (probit analysis) (Deroceras reticulatum [1]; Deroceras reticulatum, treatments 1 to 4 (Amistar 250SC)): 0.068 mg a.i./slug
- killing of slugs (in words) (Deroceras reticulatum [1]; treatments 1 to 4): highly effective at killing slugs
- efficacy against slug species (in words) (Arion distinctus [4]; Arion distinctus): effective against all three species
- concentration to kill approximately 99% of the population (probit analysis) (Arion distinctus [4]; A. distinctus): 0.183 mg a.i./slug
- efficacy against slug species (in words) (Arion fasciatus [5]; Arion fasciatus): effective against all three species
- concentration to kill approximately 99% of the population (probit analysis) (Arion fasciatus [5]; A. fasciatus): 0.904 mg a.i./slug
- efficacy against slug species (in words) (Tandonia budapestensis [6]; Tandonia budapestensis): effective against all three species
- concentration to kill approximately 99% of the population (probit analysis) (Tandonia budapestensis [6]; T. budapestensis): 0.163 mg a.i./slug
- efficacy against slug species (in words) (Arion distinctus [7]): effective against all four slug species tested
- efficacy against slug species (in words) (Arion fasciatus [8]): effective against all four slug species tested
- efficacy against slug species (in words) (Deroceras reticulatum [9]): effective against all four slug species tested
- efficacy against slug species (in words) (Tandonia budapestensis [10]): effective against all four slug species tested
- Affected % (D. reticulatum; [26]): 12.5%
- Dead or Moribund % (D. reticulatum; [26]): 42.5%
- Healthy % (D. reticulatum; [26]): 45%
- slug mortality (D. reticulatum; azoxystrobin additionally present with surfactant/formulation (treatment 4)): 100%

Reference: patent publication US20150296780A1, “MOLLUSCICIDE” (Syngenta Participations AG, priority 2008, published 2015)
